Tests used:
Rattus norvegicus [1] = experiment: Antiarthritic activity in Lewis rat model of adjuvant-induced arthritis administrated by oral gavage once daily; format: functional
Rattus norvegicus [2] = experiment: Antiinflammatory activity in orally dosed Sprague-Dawley rat model of carrageenan-induced foot paw edema assessed as reduction in edema by plethysmometry; format: functional, organism-based
Rattus norvegicus [3] = experiment: Antiinflammatory activity in orally dosed Sprague-Dawley rat model of carrageenan-induced air pouch inflammation assessed as reduction in PGE2 level by ELISA method; format: functional, organism-based
Rattus norvegicus [4] = experiment: Antinociceptive activity in orally dosed Sprague-Dawley rat model of carrageenan-induced foot paw hyperalgesia assessed as paw withdrawal latency; format: functional, organism-based
[5] = biological target: Prostaglandin G/H synthase 1 (Homo sapiens, UniProt P23219); experiment: Inhibition of human recombinant COX1 pre-incubated for 15 mins before fluorometric substrate addition by fluorescence based assay
[6] = (§1) AUC (0 to infinity) in Sprague-Dawley rat at 10 mg/kg, po measured during 1 to 24 hrs by LC-MS method; format: ADME, organism-based, Plasma; design: time infinity, dose 10 mg/kg, route oral; conditions: Sprague-Dawley, plasma
Rattus norvegicus [7] = experiment: Volume of distribution in Sprague-Dawley rat at 10 mg/kg, po measured during 1 to 24 hrs by LC-MS method; format: ADME, organism-based; design: dose 10 mg/kg, route oral; conditions: in vivo
[8] = Cmax in Sprague-Dawley rat at 5 mg/kg, iv measured during 1 to 24 hrs by LC-MS method; format: ADME, organism-based; design: dose 5 mg/kg, route intravenous; conditions: in vivo
[9] = (§2) Apparent oral clearance in Sprague-Dawley rat at 10 mg/kg, po measured during 1 to 24 hrs by LC-MS method; format: ADME, organism-based; design: dose 10 mg/kg, route oral; conditions: Sprague-Dawley, in vivo
Rattus norvegicus [10] = experiment: Half life in Sprague-Dawley rat at 5 mg/kg, iv measured during 1 to 24 hrs by LC-MS method; format: ADME, organism-based; design: dose 5 mg/kg, route intravenous; conditions: in vivo
[11] = Apparent oral clearance in Sprague-Dawley rat at 5 mg/kg, iv measured during 1 to 24 hrs by LC-MS method; format: ADME, organism-based; design: dose 5 mg/kg, route oral; conditions: in vivo
[12] = (§3) Oral bioavailability in Sprague-Dawley rat at 10 mg/kg measured during 1 to 24 hrs by LC-MS method; format: ADME, organism-based; conditions: Sprague-Dawley, in vivo
[13] = (§4) AUC (0 to infinity) in Sprague-Dawley rat at 5 mg/kg, iv measured during 1 to 24 hrs by LC-MS method; format: ADME, organism-based, Plasma; design: time infinity, dose 5 mg/kg, route intravenous; conditions: Sprague-Dawley, plasma
[14] = biological target: T1, Prostaglandin G/H synthase 2 (Homo sapiens, UniProt P35354); experiment: Inhibition of human recombinant COX2 pre-incubated for 15 mins before fluorometric substrate addition by fluorescence based assay
T1 sequence (P35354 whole entry): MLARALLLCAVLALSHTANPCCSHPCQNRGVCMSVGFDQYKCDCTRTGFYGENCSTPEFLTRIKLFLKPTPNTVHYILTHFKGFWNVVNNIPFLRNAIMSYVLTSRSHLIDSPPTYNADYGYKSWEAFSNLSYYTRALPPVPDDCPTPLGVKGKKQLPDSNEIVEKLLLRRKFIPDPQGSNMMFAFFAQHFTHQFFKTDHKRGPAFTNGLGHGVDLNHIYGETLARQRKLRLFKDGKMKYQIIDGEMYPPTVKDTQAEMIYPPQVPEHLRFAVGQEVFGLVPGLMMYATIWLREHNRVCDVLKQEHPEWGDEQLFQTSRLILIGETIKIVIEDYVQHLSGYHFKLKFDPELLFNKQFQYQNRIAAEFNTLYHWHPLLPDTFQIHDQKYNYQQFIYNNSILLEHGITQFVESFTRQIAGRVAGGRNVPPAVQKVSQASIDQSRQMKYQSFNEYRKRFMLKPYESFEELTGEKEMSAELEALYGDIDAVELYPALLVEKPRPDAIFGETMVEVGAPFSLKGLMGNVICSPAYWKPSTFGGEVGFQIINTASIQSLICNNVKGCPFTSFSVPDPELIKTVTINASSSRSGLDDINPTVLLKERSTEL

[15] = Volume of distribution in Sprague-Dawley rat at 5 mg/kg, iv measured during 1 to 24 hrs by LC-MS method; format: ADME, organism-based; design: dose 5 mg/kg, route intravenous; conditions: in vivo
[16] = Cmax in Sprague-Dawley rat at 2.5 mg/kg, po measured during 1 to 24 hrs by LC-MS method; format: ADME, organism-based; design: dose 2.5 mg/kg, route oral; conditions: in vivo
Rattus norvegicus [17] = experiment: Tmax in Sprague-Dawley rat at 2.5 mg/kg, po measured during 1 to 24 hrs by LC-MS method; format: ADME, organism-based; design: dose 2.5 mg/kg, route oral; conditions: in vivo
[18] = Apparent oral clearance in Sprague-Dawley rat at 1 mg/kg, iv measured during 1 to 24 hrs by LC-MS method; format: ADME, organism-based; design: dose 1 mg/kg, route oral; conditions: in vivo
[19] = Cmax in Sprague-Dawley rat at 1 mg/kg, iv measured during 1 to 24 hrs by LC-MS method; format: ADME, organism-based; design: dose 1 mg/kg, route intravenous; conditions: in vivo
[20] = Oral bioavailability in Sprague-Dawley rat at 2.5 mg/kg measured during 1 to 24 hrs by LC-MS method; format: ADME, organism-based; conditions: Sprague-Dawley, in vivo
Rattus norvegicus [21] = experiment: Half life in Sprague-Dawley rat at 2.5 mg/kg, po measured during 1 to 24 hrs by LC-MS method; format: ADME, organism-based; design: dose 2.5 mg/kg, route oral; conditions: in vivo
[22] = Apparent oral clearance in Sprague-Dawley rat at 2.5 mg/kg, po measured during 1 to 24 hrs by LC-MS method; format: ADME, organism-based; design: dose 2.5 mg/kg, route oral; conditions: Sprague-Dawley, in vivo
Rattus norvegicus [23] = experiment: Half life in Sprague-Dawley rat at 1 mg/kg, iv measured during 1 to 24 hrs by LC-MS method; format: ADME, organism-based; design: dose 1 mg/kg, route intravenous; conditions: in vivo
Rattus norvegicus [24] = experiment: AUC (0 to infinity) in Sprague-Dawley rat at 2.5 mg/kg, po measured during 1 to 24 hrs by LC-MS method; format: ADME, organism-based, Plasma; design: dose 2.5 mg/kg, route oral, time infinity; conditions: in vivo
[25] = Volume of distribution in Sprague-Dawley rat at 1 mg/kg, iv measured during 1 to 24 hrs by LC-MS method; format: ADME, organism-based; design: dose 1 mg/kg, route intravenous; conditions: in vivo
Rattus norvegicus [26] = experiment: AUC (0 to infinity) in Sprague-Dawley rat at 1 mg/kg, iv measured during 1 to 24 hrs by LC-MS method; format: ADME, organism-based, Plasma; design: time infinity, dose 1 mg/kg, route intravenous; conditions: in vivo
Rattus norvegicus [27] = experiment: as §1; format: ADME, organism-based, Plasma; design: time infinity, dose 10 mg/kg, route oral; conditions: in vivo
Rattus norvegicus [28] = experiment: as §2; format: ADME, organism-based; design: dose 10 mg/kg, route oral; conditions: in vivo
Rattus norvegicus [29] = experiment: Half life in Sprague-Dawley rat at 10 mg/kg, po measured during 1 to 24 hrs by LC-MS method; format: ADME, organism-based; design: dose 10 mg/kg, route oral; conditions: in vivo
Rattus norvegicus [30] = experiment: Tmax in Sprague-Dawley rat at 10 mg/kg, po measured during 1 to 24 hrs by LC-MS method; format: ADME, organism-based; design: dose 10 mg/kg, route oral; conditions: in vivo
Rattus norvegicus [31] = experiment: as §3; format: ADME, organism-based; conditions: in vivo
[32] = Cmax in Sprague-Dawley rat at 10 mg/kg, po measured during 1 to 24 hrs by LC-MS method; format: ADME, organism-based; design: dose 10 mg/kg, route oral; conditions: in vivo
Rattus norvegicus [33] = experiment: as §4; format: ADME, organism-based, Plasma; design: time infinity, dose 5 mg/kg, route intravenous; conditions: in vivo

Chain of Prostaglandin G/H synthase 1 (P23219 whole entry): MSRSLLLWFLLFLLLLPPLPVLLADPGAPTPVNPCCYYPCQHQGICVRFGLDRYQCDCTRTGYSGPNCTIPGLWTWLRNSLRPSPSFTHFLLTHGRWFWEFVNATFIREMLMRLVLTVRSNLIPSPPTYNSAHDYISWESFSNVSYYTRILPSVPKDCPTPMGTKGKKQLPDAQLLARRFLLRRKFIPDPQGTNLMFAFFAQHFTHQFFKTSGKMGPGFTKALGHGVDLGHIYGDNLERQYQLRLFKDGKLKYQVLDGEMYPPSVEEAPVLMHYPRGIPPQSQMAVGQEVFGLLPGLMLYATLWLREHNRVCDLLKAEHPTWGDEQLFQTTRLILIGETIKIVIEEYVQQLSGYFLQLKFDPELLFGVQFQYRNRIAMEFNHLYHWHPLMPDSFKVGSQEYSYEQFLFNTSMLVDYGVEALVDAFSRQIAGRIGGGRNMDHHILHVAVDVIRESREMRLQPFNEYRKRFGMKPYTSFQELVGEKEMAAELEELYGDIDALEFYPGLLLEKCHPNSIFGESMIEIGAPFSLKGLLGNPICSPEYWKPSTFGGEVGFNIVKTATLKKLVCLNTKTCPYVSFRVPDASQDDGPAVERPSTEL

## Cc1ccc(-c2cc(C(F)(F)F)nn2-c2ccc(S(N)(=O)=O)cc2)cc1 [CELECOXIB]
Rattus norvegicus [1]
  ED50: 1.57 mg/kg
Rattus norvegicus [2]
  EC50: 2.81 mg/kg
Rattus norvegicus [3]
  EC50: 0.69 mg/kg
Rattus norvegicus [4]
  EC50: 5 mg/kg

## [2H]C([2H])([2H])c1c(Br)c2c(c(C([2H])([2H])[2H])c1Br)C=C(C(=O)O)C(C(F)(F)F)O2 (configuration not stated)
[5]
  IC50: > 100000 nM

## [2H]C([2H])([2H])c1cc2c(c(C([2H])([2H])[2H])c1Br)C=C(C(=O)O)C(C(F)(F)F)O2 (configuration not stated)
[6]
  AUC(0-inf): 84800 ng·h/mL
Rattus norvegicus [7]
  Vd: 0.57 L/kg
[8]
  Cmax: 26200 ng/mL
[9]
  CL/F: 2.08 mL/min/kg
Rattus norvegicus [10]
  t1/2: 2.733 h
[11]
  CL/F: 2.25 mL/min/kg
[12]
  bioavailability: 112%
Rattus norvegicus [2]
  EC50: 2.26 mg/kg
Rattus norvegicus [3]
  EC50: 0.57 mg/kg
Rattus norvegicus [4]
  EC50: 3.82 mg/kg
[13]
  AUC(0-inf): 37900 ng·h/mL
[14]
  IC50: 43 nM
[15]
  Vd: 0.529 L/kg

## Cc1cc(Cl)cc2c1OC(C(F)(F)F)C(C(=O)O)=C2 (configuration not stated)
[16]
  Cmax: 2720 ng/mL
Rattus norvegicus [17]
  Tmax: 0.25 h
[18]
  CL/F: 11.8 mL/min/kg
[19]
  Cmax: 4130 ng/mL
[20]
  bioavailability: 128%
Rattus norvegicus [21]
  t1/2: 1.75 h
[22]
  CL/F: 9.12 mL/min/kg
Rattus norvegicus [3]
  EC50: 0.61 mg/kg
Rattus norvegicus [23]
  t1/2: 0.59 h
Rattus norvegicus [24]
  AUC: 4627.624 ng·h/mL
[25]
  Vd: 0.59 L/kg
Rattus norvegicus [26]
  AUC: 1440.446 ng·h/mL

## [2H]C([2H])([2H])c1cc2c(c(C([2H])([2H])[2H])c1Br)C=C(C(=O)O)[C@@H](C(F)(F)F)O2
[5]
  IC50: > 100000 nM
[14]
  IC50: 9 nM

## Cc1cc2c(c(C)c1Cl)C=C(C(=O)O)C(C(F)(F)F)O2 (configuration not stated)
Rattus norvegicus [27]
  AUC: 12846.927 ng·h/mL
Rattus norvegicus [7]
  Vd: 1.25 L/kg
[18]
  CL/F: 3.45 mL/min/kg
Rattus norvegicus [28]
  CL/F: 3.25 mL/min/kg
[19]
  Cmax: 5040 ng/mL
Rattus norvegicus [29]
  t1/2: 3.09 h
Rattus norvegicus [30]
  Tmax: 0.438 h
Rattus norvegicus [31]
  F: 78.5%
[5]
  IC50: > 100000 nM
Rattus norvegicus [3]
  EC50: 0.77 mg/kg
Rattus norvegicus [23]
  t1/2: 1.5 h
[25]
  Vd: 0.45 L/kg
Rattus norvegicus [26]
  AUC: 4898.988 ng·h/mL
[32]
  Cmax: 6590 ng/mL

## [2H]C([2H])([2H])c1cc(Br)cc2c1OC(C(F)(F)F)C(C(=O)O)=C2 (configuration not stated)
Rattus norvegicus [27]
  AUC: 142686.966 ng·h/mL
Rattus norvegicus [7]
  Vd: 0.53 L/kg
[8]
  Cmax: 39000 ng/mL
[9]
  CL/F: 1.2 mL/min/kg
Rattus norvegicus [10]
  t1/2: 4.186 h
[11]
  CL/F: 1.28 mL/min/kg
Rattus norvegicus [1]
  ED50: 0.42 mg/kg
[12]
  bioavailability: 107%
Rattus norvegicus [2]
  EC50: 3 mg/kg
Rattus norvegicus [3]
  EC50: 0.27 mg/kg
Rattus norvegicus [4]
  EC50: 2.19 mg/kg
Rattus norvegicus [33]
  AUC: 66436.832 ng·h/mL
[14]
  IC50: 39 nM
[15]
  Vd: 0.461 L/kg

## [2H]C([2H])([2H])c1cc2c(c(C([2H])([2H])[2H])c1Cl)C=C(C(=O)O)[C@@H](C(F)(F)F)O2
[5]
  IC50: > 100000 nM

## [2H]C([2H])([2H])c1cc(Cl)cc2c1O[C@H](C(F)(F)F)C(C(=O)O)=C2
[5]
  IC50: > 100000 nM

Source: ChEMBL document CHEMBL3351875, “Synthesis of Deuterated Benzopyran Derivatives as Selective COX-2 Inhibitors with Improved Pharmacokinetic Properties” (ACS Med Chem Lett, 2014)
